Measured values as given in US5266594A, “Inhibitors of nitric oxide synthase and use thereof to prevent glutamate neurotoxicity” (priority 1992, dated 1993).

Legend:
[1] = system: brain-endothelial and macrophage NOS; settings: cited from earlier work
[2] = system: brain or macrophage enzyme (NOS); assay: NOS inhibition and brain/macrophage selectivity of arginine, nitroarginine and guanidinoalkanoic acid analogs; assay type: biochemical
[3] = system: macrophage NOS (activated macrophage homogenates); assay: inhibition of NOS activity in activated macrophage homogenates in vitro; assay type: biochemical
Source text: Inhibitors of NOS are compounds which compete for the substrate binding site of NOS or other sites on the enzyme, and include both reversible and irreversible inhibitors. The present invention contemplates the use of any physiologically acceptable inhibitor which inhibits NOS activity. The effectiveness of a compound, and its relative potency as an NOS inhibitor, can be tested and routinely determined by measuring inhibition of NOS activity by monitoring the conversion of arginine to citrulline by NOS in, for example, cerebellar homogenates. A reduction in citrulline formation indicates inhibitory activity of the compound. The percent reduction in citrulline formation, compared to the amount of citrulline formed in the absence of the compound being tested, indicates the potency of the compound as an NOS inhibitor.
NOS activity was measured by monitoring the conversion of [^3 H]arginine to [^3 H]citrulline as described by Bredt and Snyder (Proc. Natl. Acad. Sci USA (1990) 87682-685). Briefly, enzyme assays contained 25 μl of soluble tissue, 50 μl of […] [^3 H]arginine and 1 mM NADPH, and 25 μl of 3 mM CaCl2. After a 15 minute incubation at room temperature, the assays were terminated with 3 ml of 20 mM Hepes (pH 5.5) with 2 mM EDTA, and were applied to 0.5 ml columns of Dowex AG50WX8 (Na^+ form). [^3 H]citrulline was quantified by liquid scintillation spectroscopy of the 3 ml flow-through.
Accordingly, the effects of 2, 4 and 24 hours of preincubations of cerebellar supernatants (FIG. 2A) and activated macrophage homogenates (FIG. 2B) with NO2 Arg were examined. The preincubation was conducted at 4° C. since NOS is unstable at higher temperature for long periods of time. Enzymatic incubation was conducted for only 5 minutes to minimize any reaction of the inhibitor with the enzyme in the course of the incubation procedure.
Macrophages were activated as described by Tayeh and Marletta (J. Biol. Chem. (1989) 264:19654-19658) with 3.5 ng/ml LPS from E. coli and 5 units/ml recombinant murine γ-interferon for 24 hours at 37° C. Cells were homogenized in 20 mM Hepes (pH 7.4).

brain NOS = brain NOS activity in cerebellar homogenates after i.p. administration; assay type: in vivo, rat (Sprague-Dawley)
Protocol: Adult male rats (Sprague-Dawley, 3 per group) were injected intraperitoneally (i.p.) twice daily with 5 mg/kg or 50 mg/kg of NO2 Arg, MeArg, arginine or vehicle twice a day for four consecutive days. The animals were sacrificed by decapitation 14 hours following the last injection.
Cerebellar homogenates were used to determine NOS activity.

cGMP formation = cGMP formation in cortical cell cultures (RIA); assay type: cell-based, rat; settings: 300 μM NMDA (plus 10 μM glycine), 1 minute; 100 μM NO2 Arg, 1 mM L-Arg, 100 units of SOD, 500 μM Hb
Protocol: Primary dissociated cell cultures were prepared from fetal rats (13-to 14-day gestation for cortex and caudate-putamen cultures and 19- to 20-day gestation for hippocampal cultures). […] Dissociated cells were plated at a density of 3-4×10^5 cells per well in polyornithine-coated 15-mm multiwell plates. After 4 days the cells were treated with 10 μg of 5-fluoro-2'-deoxyuridine to prevent proliferations of noneuronal cells. Cells were maintained in MEM/5% horse serum/2 mM glutamine in 8% CO2 /humidified atmosphere at 37° C. The medium was changed twice weekly. Mature neurons (3-4 weeks) were used.
For determination of cGMP the cells were washed three times with CSS. […] After ether extraction, cGMP levels were determined by RIA.
Data are means ±SEM (n=6-8).
Data are means ±SEM (n=8-12).

N=C(NCCC[C@H](N)C(=O)O)N[N+](=O)[O-] [NO2 Arg, L-N^ω -nitroarginine]
inhibition of brain-endothelial versus macrophage enzyme ([1]; Gross et al. (1990)): weaker inhibitor of the macrophage enzyme | greater potency in inhibiting brain-endothelial than macrophage NOS ([1]; incubations at 37° C. for about 1/2 hour, 30 min): 10-300 fold | inhibition potency among nitroarginine analogs [2]: most potent inhibitor | potency in inhibiting the macrophage enzyme compared to the cerebellar enzyme ([3]; 24 hours of incubation): about 7% | enhancement of potency after preincubation ([3]; preincubation with the enzyme, 24 hours, FIG. 2B): only a minimal enhancement of potency | potency as NOS inhibitor relative to cerebellar preparations ([3]; supernatant preparations of activated macrophage cultures, FIG. 2B): less potent inhibitor of NOS than in cerebellar preparations | inhibition of brain NOS (brain NOS; 5 mg/kg i.p. twice daily, four consecutive days, 14 hours after last injection): about 50% | inhibition of enzyme activity in the brain after peripheral administration (brain NOS; 5 mg/kg, peripheral administration): markedly inhibits enzyme activity in the brain | inhibition of brain NOS enzyme activity (brain NOS; 50 mg/kg i.p. twice daily, four consecutive days, 14 hours after last injection): 95% | inhibition of NOS activity, repeated administration for 7 days versus 4 days (brain NOS; 7 days): no greater inhibition of NOS activity than 4 days of treatment | nature of inhibition of NOS in vivo (brain NOS; FIG. 3, before and after dialysis): irreversible inhibition | effect of dialysis on enzyme activity (brain NOS; crude supernatant from treated animals dialyzed for 24 hours): only slightly increases enzyme activity | time for which brain NOS activity does not return to normal levels (brain NOS; following 90% inhibition with 50 mg/kg): at least 5 days | reduction of enzyme activity (brain NOS; single injection of 50 mg/kg): 50% | effect on NMDA stimulation of cGMP formation (cGMP formation): antagonized
